From US6949250B2, “Selective algaecides for control of cyanochloronta” (The United States of America as represented by the …, priority 2002, dated 2005)
Like-named read-outs stand apart in the source and are kept apart here.

Columns and labels:
[1] = test system: Selenastrum capricornutum; assay: Rapid bioassay screening for selective algicides (LOEC, LCIC); format: cell-based; settings: rapid screening
[2] = test system: Oscillatoria perornata; assay: as above; format: cell-based; settings: rapid screening; for MIC: read-out: LCIC (lowest-complete-inhibition concentration), Oscillatoria perornata; for minimal effective concentration: read-out: LOEC (lowest-observed-effect concentration), Oscillatoria perornata
[3] = test system: Selenastrum capricornutum; assay: 96-hour IC50 determination; format: cell-based; settings: 96-hour 50% inhibition concentration, read-out: IC50, Selanastrum capricornutum
Experimental: (§1) The green alga Selenastrum capricornutum (obtained from the United States Environmental Protection Agency, Corvallis, Oreg.) was used as the representative green algal species in the bioassay since it is a common species found in southeastern United States catfish ponds. […] In addition, a 96-hour 50% inhibition concentration (IC50) was determined for DNA1-19-1 and DNA2-59-1 by using the method described by Schrader et al. (1998b). Stock solutions of DNA1-19-1 and DNA2-59-1 were prepared so that final concentrations screened for 96-hour IC50 determinations were as follows: 1) 0, 0.01, 0.033, 0.1, 0.333, 1.0, 3.3, and 10.0 μM DNA1-19-1 for both O. perornata and S. capricornutum; 2) 0, 0.003, 0.01, 0.033, 0.1, 0.333, 1.0, and 3.333 μM DNA2-59-1 for O. perornata; and 3) 0, 0.1, 0.333, 1.0, 3.333, 10.0, 33.333, and 100.0 μM DNA2-59-1 for S. capricornutum. Estimation of the IC50 was determined by plotting 96-hour absorbance readings against logarithmic dilution values of the anthraquinone analogs.
(§2) The green alga Selenastrum capricornutum (obtained from the United States Environmental Protection Agency, Corvallis, Oreg.) was used as the representative green algal species in the bioassay since it is a common species found in southeastern United States catfish ponds. […] Stock solutions of DNA1-19-1 and DNA2-59-1 were prepared so that final concentrations screened for 96-hour IC50 determinations were as follows: 1) 0, 0.01, 0.033, 0.1, 0.333, 1.0, 3.3, and 10.0 μM DNA1-19-1 for both O. perornata and S. capricornutum; 2) 0, 0.003, 0.01, 0.033, 0.1, 0.333, 1.0, and 3.333 μM DNA2-59-1 for O. perornata; and 3) 0, 0.1, 0.333, 1.0, 3.333, 10.0, 33.333, and 100.0 μM DNA2-59-1 for S. capricornutum. Estimation of the IC50 was determined by plotting 96-hour absorbance readings against logarithmic dilution values of the anthraquinone analogs.

[4] = test system: Oscillatoria perornata; assay: 96-hour IC50 determination; format: cell-based; settings: for IC50: 96-hour 50% inhibition concentration; for selective toxicity towards O. perornata compared to S. capricornutum (result in words): based on laboratory screening and IC50 results
Experimental: as §1, §2

[5] = Solubility in water; format: physicochemical

Row | SMILES | LCIC (lowest-complete-inhibition concentration), Selenastrum capricornutum [1] | LOEC (lowest-observed-effect concentration), Selenastrum capricornutum [1] | MIC [2] [µM] | minimal effective concentration [2] [nM] | IC50 [3] [µM] | IC50 [4] [µM] | selective toxicity towards O. perornata compared to S. capricornutum (result in words) [4] | solubility in water [5] | MIC ([1]; Selenastrum capricornutum, read-out: LCIC (lowest-complete-inhibition concentration), Selenastrum capricornutum) [µM] | minimal effective concentration ([1]; Selenastrum capricornutum, read-out: LOEC (lowest-observed-effect concentration), Selenastrum capricornutum) [µM] | MIC ([2]; Planktothrix perornata) [µM] | minimal effective concentration ([2]; Planktothrix perornata) [nM] | IC50 ([3]; Selenastrum capricornutum) [µM] | IC50 ([4]; Planktothrix perornata) [µM]
1 | CCN(CC)CCCC(C)NCc1ccc2c(c1)C(=O)c1ccccc1C2=O.O=P(O)(O)O.O=P(O)(O)O (stereo not shown) [DNA1-19-1, 2-[methylamino-N-(1′-methyl-4′-N,N-diethylaminobutyl)]-9,10-anthraquinone diphosphate] | 10,000 nM | 10,000 nM | 0.1 | 10 | 5.01 | 0.063 | very selectively toxic | soluble in water | – | – | – | – | – | –
2 | CC(C)NCc1ccc2c(c1)C(=O)c1ccccc1C2=O [DNA2-59-1, 2-[methylamino-N-(1′-methylethyl)]-9,10-anthraquinone monophosphate] | – | – | – | – | – | – | very selectively toxic | soluble in water | 100 | 10 | 0.1 | 10 | 5.62 | 0.0063
